We go through 71 molecules from patent US9510598B2, “Nitrogen-containing heterocyclic compounds for plant disease control” (BAYER CROPSCIENCE AG, priority 2012, dated 2016).

The format of this data set is physicochemical. To be noted: HPLC on reversed phase columns, method [a]: pH 2.7, 0.1% formic acid in water / acetonitrile, linear gradient 10% to 95% acetonitrile.
`CC(=O)C1(C(=O)NC2CCC2)CC(c2ccc3ncc(Br)cc3c2)=NO1` (centres unmarked) [compound 583]: the “log P” value was 3.06[a]. With `CC(=O)C1(C(=O)NCc2cnc(C)cn2)CC(c2ccc3ncc(Br)cc3c2)=NO1` (centres unmarked) [compound 584] the figure was 2.37[a]; with `CCn1cc(CNC(=O)C2(C(C)=O)CC(c3ccc4ncc(Br)cc4c3)=NO2)c(C)n1` (centres unmarked) [compound 585], 2.53[a]; with `CCCn1cc(CNC(=O)C2(C(C)=O)CC(c3ccc4ncc(Br)cc4c3)=NO2)c(C)n1` (centres unmarked) [compound 586], 2.80[a]. Take `C#Cc1cnc2c(Cl)cc(C3=NOC(OC)(C(=O)NCc4cn(CC)nc4C)C3)cc2c1` (centres unmarked) [compound 587]: the “log P” value was 2.53[a]. The result for `C#Cc1cnc2c(Cl)cc(C3=NOC(OC)(C(=O)NCc4cn(CCC)nc4C)C3)cc2c1` (centres unmarked) [compound 588] reads 2.80[a]; that for `C#Cc1cnc2c(Cl)cc(C3=NOC(OC)(C(=O)NCC4COC(C)(C)O4)C3)cc2c1` (centres unmarked) [compound 589], 2.82[a]; that for `C#Cc1cnc2c(Cl)cc(C3=NOC(OC)(C(=O)NC(C)C)C3)cc2c1` (centres unmarked) [compound 590], 2.84[a]. The result for `C#Cc1cnc2c(Cl)cc(C3=NOC(OC)(C(=O)NCc4cnc(C)cn4)C3)cc2c1` (centres unmarked) [compound 591] reads 2.37[a]; that for `C#Cc1cnc2c(Cl)cc(C3=NOC(OC)(C(=O)NC4CCC4)C3)cc2c1` (centres unmarked) [compound 592], 3.02[a]; that for `C#Cc1cnc2c(Cl)cc(C3=NOC(OC)(C(=O)NCCCOCC)C3)cc2c1` (centres unmarked) [compound 594], 2.88[a]. As to `C#Cc1cnc2ccc(C3=NOC(C)(C(=O)NC4CCN(C)CC4)C3)cc2c1` (centres unmarked) [compound 598], the “log P” value was 1.17[a]. The result for `CCn1cc(CNC(=O)C2(OC)CC(c3cc(C)c4ncc(Br)cc4c3)=NO2)c(C)n1` (centres unmarked) [compound 600] reads 2.96[a]; that for `COC1(C(=O)NCC2COC(C)(C)O2)CC(c2cc(C)c3ncc(Br)cc3c2)=NO1` (centres unmarked) [compound 601], 3.33[a].

For the molecule `COC1(C(=O)NC2CCC2)CC(c2cc(C)c3ncc(Br)cc3c2)=NO1` (centres unmarked) [compound 603], the “log P” value was 3.58[a]. The result for `C#Cc1cnc2c(C)cc(C3=NOC(OC)(C(=O)NC(C)C)C3)cc2c1` (centres unmarked) [compound 604] reads 2.94[a]; that for `C#Cc1cnc2c(C)cc(C3=NOC(OC)(C(=O)NCC4COC(C)(C)O4)C3)cc2c1` (centres unmarked) [compound 605], 2.92[a]; that for `C#Cc1cnc2c(C)cc(C3=NOC(OC)(C(=O)NCCCOCC)C3)cc2c1` (centres unmarked) [compound 607], 3.00[a].

Take `COC1(C(=O)NC(C)C)CC(c2cc(C)c3ncc(Br)cc3c2)=NO1` (centres unmarked) [compound 608]: the “log P” value was 3.37[a]. With `C#Cc1cnc2c(C)cc(C3=NOC(OC)(C(=O)NCc4cn(CC)nc4C)C3)cc2c1` (centres unmarked) [compound 609], the “log P” value is 2.62[a]. With `C#Cc1cnc2c(C)cc(C3=NOC(OC)(C(=O)NCc4cn(CCC)nc4C)C3)cc2c1` (centres unmarked) [compound 610] the figure was 2.90[a]. With `C#Cc1cnc2c(C)cc(C3=NOC(OC)(C(=O)NCc4cnc(C)cn4)C3)cc2c1` (centres unmarked) [compound 611] the figure was 2.46[a]; with `C#Cc1cnc2c(C)cc(C3=NOC(OC)(C(=O)NC4CCC4)C3)cc2c1` (centres unmarked) [compound 612], 3.15[a]; with `C#Cc1cnc2ccc(C3=NOC(C(=O)NC(C)C)(C(F)F)C3)cc2c1` (centres unmarked) [compound 616], 2.73[a]. With `CC(C)NC(=O)C1(C(F)F)CC(c2ccc3ncc(I)cc3c2)=NO1` (centres unmarked) [compound 620] the figure was 3.17[a]; with `CC1(C)OCC(CNC(=O)C2(C(F)F)CC(c3ccc4ncc(Br)cc4c3)=NO2)O1` (centres unmarked) [compound 622], 2.96[a]; with `C#CC(C)(C)NC(=O)C1(C)CC(c2ccc3ncc(Br)cc3c2)=NO1` (centres unmarked) [compound 624], 3.08[a].

As to `C#CC1(C(=O)NC2CCC2)CC(c2ccc3ncc(Br)cc3c2)=NO1` (centres unmarked) [compound 625], the “log P” value is 3.11[a].

As to `C#CC1(C(=O)NCc2cn(CC)nc2C)CC(c2ccc3ncc(Br)cc3c2)=NO1` (centres unmarked) [compound 626], the “log P” value is 2.57[a].

With `C#CC1(C(=O)NCCCOCC)CC(c2ccc3ncc(Br)cc3c2)=NO1` (centres unmarked) [compound 627], the “log P” value is 2.94[a]. With `C#CC1(C(=O)NCc2cnc(C)cn2)CC(c2ccc3ncc(Br)cc3c2)=NO1` (centres unmarked) [compound 628] the figure was 2.41[a]; with `C#Cc1cnc2ccc(C3=NOC(C)(C(=O)NCc4cn(C5CCCC5)nc4C)C3)cc2c1` (centres unmarked) [compound 629], 2.71[a]. Turning to `Cc1nn(C2CCCC2)cc1CNC(=O)C1(C)CC(c2ccc3ncc(Br)cc3c2)=NO1` (centres unmarked) [compound 630], the “log P” value is 3.04[a].

In the case of `C#Cc1cnc2ccc(C3=NOC(C)(C(=O)NCc4ccc(OC)cn4)C3)cc2c1` (centres unmarked) [compound 631], the “log P” value is 1.96[a]. Consider `C#Cc1cnc2ccc(C3=NOC(C)(C(=O)NCc4cn(C5CCC5)nc4C)C3)cc2c1` (centres unmarked) [compound 632], for which the “log P” value was 2.63[a]. As to `Cc1nn(C2CCC2)cc1CNC(=O)C1(C)CC(c2ccc3ncc(Br)cc3c2)=NO1` (centres unmarked) [compound 633], the “log P” value was 2.92[a]. With `C#Cc1cnc2ccc(C3=NOC(C)(C(=O)NCc4cn(CC)nc4Br)C3)cc2c1` (centres unmarked) [compound 634] the figure was 2.56[a]; with `C#Cc1cnc2ccc(C3=NOC(C)(C(=O)NCc4cn(CC)nc4SC)C3)cc2c1` (centres unmarked) [compound 635], 2.51[a]; with `CCn1cc(CNC(=O)C2(C)CC(c3ccc4ncc(Br)cc4c3)=NO2)c(Br)n1` (centres unmarked) [compound 636], 2.86[a].

For `C#Cc1cnc2ccc(C3=NOC(C)(C(=O)NCc4cn(CC)nc4OC)C3)cc2c1` (centres unmarked) [compound 637], the “log P” value is 2.35[a]. The result for `CCn1cc(CNC(=O)C2(C)CC(c3ccc4ncc(Br)cc4c3)=NO2)c(SC)n1` (centres unmarked) [compound 638] reads 2.78[a]; that for `CCn1cc(CNC(=O)C2(C)CC(c3ccc4ncc(Br)cc4c3)=NO2)c(OC)n1` (centres unmarked) [compound 639], 2.63[a]. `C#Cc1cnc2ccc(C3=NOC(C)(C(=O)NCCF)C3)cc2c1` (centres unmarked) [compound 640]: the “log P” value is 2.05[a]. Take `CC1(C(=O)NCCF)CC(c2ccc3ncc(Br)cc3c2)=NO1` (centres unmarked) [compound 641]: the “log P” value is 2.30[a]. For `CC1(C(=O)NCc2ccncn2)CC(c2ccc3ncc(Br)cc3c2)=NO1` (centres unmarked) [compound 642], the “log P” value is 2.01[a]. Consider `C#Cc1cnc2ccc(C3=NOC(C)(C(=O)NCc4nc(C)cc(C)n4)C3)cc2c1` (centres unmarked) [compound 643], for which the “log P” value is 2.23[a]. Take `COc1cccnc1CNC(=O)C1(C)CC(c2ccc3ncc(Br)cc3c2)=NO1` (centres unmarked) [compound 644]: the “log P” value is 2.26[a]. On to `C#Cc1cnc2ccc(C3=NOC(C)(C(=O)NCc4ncccc4OC)C3)cc2c1` (centres unmarked) [compound 645], for which the “log P” value is 2.01[a]. With `CC1(C(=O)NCc2cnn(CC(F)F)c2)CC(c2ccc3ncc(Br)cc3c2)=NO1` (centres unmarked) [compound 646] the figure was 2.42[a]; with `C#Cc1cnc2ccc(C3=NOC(C)(C(=O)NCc4cnn(CC(F)F)c4)C3)cc2c1` (centres unmarked) [compound 647], 2.17[a].

Take `C#Cc1cnc2ccc(C3=NOC(C)(C(=O)NCc4nc(C)cs4)C3)cc2c1` (centres unmarked) [compound 648]: the “log P” value is 2.26[a]. As to `Cc1csc(CNC(=O)C2(C)CC(c3ccc4ncc(Br)cc4c3)=NO2)n1` (centres unmarked) [compound 649], the “log P” value is 2.56[a]. In the case of `C#Cc1cnc2ccc(C3=NOC(C)(C(=O)N(OC)C(C)C)C3)cc2c1` (centres unmarked) [compound 650], the “log P” value was 3.15[a]. The result for `CON(C(=O)C1(C)CC(c2ccc3ncc(Br)cc3c2)=NO1)C(C)C` (centres unmarked) [compound 651] reads 3.59[a]. With `C#Cc1cnc2ccc(C3=NOC(C)(C(=O)NCC(F)F)C3)cc2c1` (centres unmarked) [compound 652] the figure was 2.26[a]. With `CC1(C(=O)NCC(F)F)CC(c2ccc3ncc(Br)cc3c2)=NO1` (centres unmarked) [compound 653] the figure was 2.56[a]. As for `C#Cc1cnc2ccc(C3=NOC(C)(C(=O)NCc4cn(CCCCC)nc4C)C3)cc2c1` (centres unmarked) [compound 654], the “log P” value was 2.96[a]. With `CCCCCn1cc(CNC(=O)C2(C)CC(c3ccc4ncc(Br)cc4c3)=NO2)c(C)n1` (centres unmarked) [compound 655] the figure was 3.31[a]; with `C#Cc1cnc2ccc(C3=NOC(C)(C(=O)NCc4cn(CCCC)nc4C)C3)cc2c1` (centres unmarked) [compound 656], 2.64[a]; with `CCCCn1cc(CNC(=O)C2(C)CC(c3ccc4ncc(Br)cc4c3)=NO2)c(C)n1` (centres unmarked) [compound 657], 2.96[a]. The result for `C#Cc1cnc2ccc(C3=NOC(C)(C(=O)N(OC)C(C)CC)C3)cc2c1` (centres unmarked) [compound 658] reads 3.50[a]; that for `CCC(C)N(OC)C(=O)C1(C)CC(c2ccc3ncc(Br)cc3c2)=NO1` (centres unmarked) [compound 659], 3.96[a]; that for `C#Cc1cnc2ccc(C3=NOC(C)(C(=O)NCc4cccc(C(C)C)n4)C3)cc2c1` (centres unmarked) [compound 660], 2.07[a]. Regarding `CC1(C(=O)NCc2ncccn2)CC(c2ccc3ncc(Br)cc3c2)=NO1` (centres unmarked) [compound 661], the “log P” value is 2.13[a]. The result for `Cc1cc(C)nc(CNC(=O)C2(C)CC(c3ccc4ncc(Br)cc4c3)=NO2)n1` (centres unmarked) [compound 662] reads 2.51[a]. With `C#Cc1cnc2ccc(C3=NOC(C)(C(=O)NCc4ccncn4)C3)cc2c1` (centres unmarked) [compound 663] the figure was 1.78[a]. For the molecule `COc1ccnc(CNC(=O)C2(C)CC(c3ccc4ncc(Br)cc4c3)=NO2)c1` (centres unmarked) [compound 664], the “log P” value was 1.49[a]. `C#Cc1cnc2ccc(C3=NOC(C)(C(=O)NCc4cccc(OC)n4)C3)cc2c1` (centres unmarked) [compound 665]: the “log P” value is 2.77[a]. With `COc1ccc(CNC(=O)C2(C)CC(c3ccc4ncc(Br)cc4c3)=NO2)nc1` (centres unmarked) [compound 666], the “log P” value was 2.20[a]. The result for `COc1cccc(CNC(=O)C2(C)CC(c3ccc4ncc(Br)cc4c3)=NO2)n1` (centres unmarked) [compound 667] reads 3.11[a]; that for `C#Cc1cnc2ccc(C3=NOC(C)(C(=O)NCc4cn(C5CC5)nc4C)C3)cc2c1` (centres unmarked) [compound 668], 2.26[a].
